Assay: Accelerated stability test for a novel crystalline form of Cabazitaxel
Type: physicochemical

Substance	Content (%) (0 month)	Moisture (%) (0 month)	The other maximum individual impurity (%) (0 month)	Total impurity (%) (0 month)	Content (%) (1 month)	Moisture (%) (1 month)	The other maximum individual impurity (%) (1 month)	Total impurity (%) (1 month)	Content (%) (2 months)	Moisture (%) (2 months)	The other maximum individual impurity (%) (2 months)	Total impurity (%) (2 months)	Content (%) (3 months)	Moisture (%) (3 months)	The other maximum individual impurity (%) (3 months)	Total impurity (%) (3 months)	Content (%) (6 months)	Moisture (%) (6 months)	The other maximum individual impurity (%) (6 months)	Total impurity (%) (6 months)
4-acetoxy-2α-benzoyloxy-5β,20-epoxy-1-hydroxy-7β,10β-dimethoxy-9-oxo-11-taxadiene-13α-yl(2R,3S)-3-tert-butoxycarbonylamino-2-hydroxy-3-phenyl-propionate [crystalline form G of Cabazitaxel]	99.4%	1.92%	0.05%	0.17%	99.4%	1.96%	0.05%	0.16%	99.4%	1.99%	0.05%	0.17%	99.3%	2.03%	0.05%	0.16%	99.1%	2.09%	0.05%	0.16%
4-acetoxy-2α-benzoyloxy-5β,20-epoxy-1-hydroxy-7β,10β-dimethoxy-9-oxo-11-taxadiene-13α-yl(2R,3S)-3-tert-butoxycarbonylamino-2-hydroxy-3-phenyl-propionate [crystalline form I of Cabazitaxel]	99.7%	0.45%	0.06%	0.21%	99.6%	0.47%	0.06%	0.20%	99.7%	0.50%	0.05%	0.20%	99.6%	0.54%	0.06%	0.21%	99.5%	0.51%	0.06%	0.22%
4-acetoxy-2α-benzoyloxy-5β,20-epoxy-1-hydroxy-7β,10β-dimethoxy-9-oxo-11-taxadiene-13α-yl(2R,3S)-3-tert-butoxycarbonylamino-2-hydroxy-3-phenyl-propionate [crystalline form J of Cabazitaxel]	99.8%	0.40%	0.08%	0.25%	99.7%	0.44%	0.07%	0.25%	99.6%	0.46%	0.07%	0.28%	99.6%	0.50%	0.08%	0.26%	99.5%	0.48%	0.08%	0.28%

Source: patent publication US9353076B2, “Crystal form of cabazitaxel and preparation method thereof” (Chongqing Taihao Pharmaceutical Co., Ltd., priority 2012, dated 2016)
